Reference: patent publication US5756109A, “Skin care compositions containing geranyl geraniol and retinol or retinyl esters” (Chesebrough-Pond's USA Co., Division of Conopco, Inc., priority 1996, dated 1998)
Entries after “also recorded” stand apart in the source; their conditions may differ. Read-outs that look alike come from different tables or passages of the source.

Tests used:
ARAT = test: In vitro microsomal esterification of retinol, ARAT (retinyl palmitate formation); type: biochemical, bovine; details: 10 micromolar retinol, 1 hour, 37° C.
Description: It is believed that the use of retinol or esters of retinol would be preferred over retinoic acid. Retinol is an endogenous compound which occurs naturally in the human body and is essential for normal epithelial cell differentiation. Retinol is also considered much safer than retinoic acid. Esters of retinol hydrolyze in-vivo to produce retinol. […] These esterification reactions are very efficient in keratinocytes--the majority (95%) of cellular retinoids are in the form of retinyl fatty esters.
(§1) Microsomes are obtained as described in: J. C.

Human keratinocytes [1] = test: 3H-thymidine incorporation, keratinocyte proliferation (Example 3); type: cell-based; details: for activity at […]: Homo sapiens, Keratinocyte, 250 nM, read-out: % Control (thymidine incorporation)
Procedure: (§2) Human keratinocytes, isolated from neonatal foreskin by trypsin treatment were grown in Dulbecco Modification Eagle (DME) Hams F12 (1:1) medium/10% fetal calf serum in the presence of irradiated 3T3 mouse fibroblasts for establishing dividing keratinocyte colonies. Cells were grown under the above condition until their second passage and kept frozen for future use. Frozen second passage keratinocytes were thawed and plated into the above medium and grown for five days before they were switched to a serum-free MCDB 153-based medium keratinocyte growth medium (KGM) from Clonetics Corporation, San Diego, Calif., containing 0.15 mM Ca, or keratinocyte serum-free media (KSFM) from GIBCO containing 0.09 mM Ca). On day 7, when the cells were 80-90% confluent, they were trypsinized and plated in the serum-free medium for the various experiments.
The incorporation of ^3 H-thymidine by cultured keratinocytes was used as an assay of keratinocyte proliferation. Thymidine is one of four deoxynucleosides which are the monomeric units of DNA, the universal library of genetic information in the animal kingdom. Prior to cell division of a somatic cell such as a keratinocyte, the complete genome of the cell undergoing cell division is replicated. This involves large scale DNA synthesis by the cell and enables both daughter cells to receive identical copies of the genetic material. When 3H-thymidine is included in the culture media of keratinocytes which are synthesizing DNA in preparation for cell division then the labelled nucleoside is incorporated into the newly synthesized DNA. The extent of incorporation of ^3 H-thymidine into a population of cells is proportional to the rate of DNA synthesis by this population of cells and therefore an indication of their cellular proliferation.
For Example 3, the following procedure was employed to measure thymidine incorporation:
Human keratinocytes were plated in 24-well plates at a density of 40,000 cells/well in 1 ml keratinocyte growth media. The cells were allowed to grow until they were 60-70% confluent (approx. 4 days), after which they were treated (in triplicate) with test agents in media for 4 hours. Tritiated thymidine (1 microcurie/ml) was then added, and the cells were incubated for an additional 18 hrs. The medium was removed and the cells were incubated for 30 minutes with ice cold 10% trichloroccetic acid. The cells were then washed 5× with 5% TCA and dissolved in 0.5 ml 0.1M NaOH. After neutralization with 0.1M HCl, aliquots were removed to measure protein and radioactivity by liquid scintillation counting.
^3 H-Thymidine incorporation was measured according to the procedure described in Materials and Methods section above.

retinol esterification = test: In vitro microsomal esterification of retinol, ARAT and LRAT together (statements in words); type: biochemical, bovine; details: compared with farnesol
Description: as §1

Human keratinocytes [2] = test: 3H-thymidine incorporation, keratinocyte proliferation (Example 1); type: cell-based; details: […]10^-7, […]10^-8 and […]10^-9 M; over ethanol control and retinol treatments
Procedure: as §2
The incorporation of ^3 H-thymidine by cultured keratinocytes was used as an assay of keratinocyte proliferation. […]
Keratinocytes (that were cultured as described above) were plated in 24 well plates at a density of about 20,000 cells per well in 1 ml media. […] Disintegrations per minute (DPM) from ^3 H labelling of DNA was determined by liquid scintillation counting of 900 μl of the cell preparation. Thymidine incorporation results were expressed as DPM/μg protein.

TGase I = test: Transglutaminase (TGase I) ELISA normalized to DNA, keratinocyte differentiation (Example 1); type: cell-based, human; details: […]10^-7, […]10^-8 and […]10^-9 M
Procedure: as §2
During the process of terminal differentiation in the epidermis, a 15 nm thick layer of protein, known as the cornified envelope (CE) is formed on the inner surface of the cell periphery. The CE is composed of numerous distinct proteins which have been cross-linked together by the formation of N^E -(γ-glutamyl) lysine isodipeptide bonds catalyzed by the action of at least two different transglutaminases (TGases) expressed in the epidermis. TGase I is expressed in abundance in the differentiated layers of the epidermis, especially the granular layer, but is absent in the undifferentiated basal epidermis. […]
Keratinocytes (cultured as described above) were plated in 96 well plates at a density of 3,000 cells per well in 200 μl media. […] The absorbance of samples was read at 492 nm in the plate reader. […] TGase levels were determined by subtracting background from the readings from each treatment and determining mean±s.d. for the replicates exposed to both Ab.
The level of TGase-1 detected after treatment of the cells could be influenced by cell number, i.e., the greater the number of cells the greater the level of TGase-1 detected. […]

SMILES | % INHIB. ARAT (ARAT; 10 μM) [%] | % INHIB. ARAT (ARAT; 100 μM) [%] | proliferation enhancing effect of retinol (in words) (Human keratinocytes [1]; 10 nM geranyl geraniol with 250 nM retinol, compared with retinoic acid) | inhibition of retinol esterification (in words) (retinol esterification) | activity at […] (Human keratinocytes [1]; Experiment #1) [%] | activity at […] (Human keratinocytes [1]; Experiment #2) [%] | keratinocyte proliferation (in words) (Human keratinocytes [2]) | decrease in transglutaminase level (in words) (TGase I) | keratinocyte differentiation (in words) (TGase I; over ethanol control and corresponding retinol treatments)
CC(C)=CCCC(C)=CCCC(C)=CCO [Farnesol, farnesol] | 20 | 43 | – | – | – | – | – | – | –
CC(C)=CCC/C(C)=C/CC/C(C)=C/CC/C(C)=C/CO [Geranyl Geraniol, geranyl geraniol] | 38 | 81 | significantly increase the proliferation enhancing effect of retinol to a level similar to that which can be achieved with a comparable amount of retinoic acid | substantially more potent esterification inhibitor, than farnesol; also recorded: substantially more potent at inhibiting retinol esterification than other terpenes, e.g., farnesol | – | – | – | – | –
CC1=C(/C=C/C(C)=C/C=C/C(C)=C/C(=O)O)C(C)(C)CCC1 [RA, Retinoic Acid] | – | – | – | – | 156 | 163 | significantly increased keratinocyte proliferation | dose dependent | decreased keratinocyte differentiation
CC1=C(/C=C/C(C)=C/C=C/C(C)=C/CO)C(C)(C)CCC1 [ROH, Retinol] | – | – | – | – | 108 | 107 | – | dose dependent | –
